Source: patent US20240226069A1, “VAFIDEMSTAT FOR USE IN TREATING AUTISM SPECTRUM DISORDERS” (ORYZON GENOMICS, S.A., priority 2019, published 2024)

System: ASD patients
Experiment: Phase IIa clinical trial (REIMAGINE), ASD cohort treated with vafidemstat for 8 weeks
Assay type: in vivo, human
Conditions: 1.2 mg/day oral
Excerpt: As part of a Phase II a clinical trial (REIMAGINE trial, EudraCT number 2018-002140-88) to evaluate the safety, tolerability and efficacy of vafidemstat to treat aggression in adult population in patients with different CNS disorders, a cohort of ASD patients was recruited and treated with vafidemstat for 8 weeks. A summary of the protocol of this clinical trial and results obtained in the ASD cohort are provided below.
Reimagine is a unicenter, open-label, 1-arm, 8-week clinical study to evaluate the efficacy, safety and tolerability of vafidemstat in aggression in adult population with ASD, ADHD and BPD.
Main objective of the trial: To evaluate the safety and tolerability of vafidemstat in adult population with ASD ADHD and BPD.
Secondary objectives of the trial: To investigate the efficacy of vafidemstat in aggression in adult population with ASD ADHD and BPD.
Main inclusion criteria: • age 18-85 • current diagnosis for ASD, ADHD or BPD according to DSM-5 criteria • significant or persistent agitation or aggression that was disruptive to patient's daily living or put the patient in harm's way for at least 3 days per week for at least 4 weeks prior to screening visit
Treatment: All patients received vafidemstat (as free base) at a dose of 1.2 mg/day, administered orally as a single capsule, in a 5 days on/2 days off schedule, during 8 weeks.
Six ASD patients were recruited, but there was one drop-out, and therefore the results as described herein correspond to the 5 ASD subjects eligible for analysis. A summary of the patients recruited in this ASD cohort (demographic data at baseline) can be found in Table 1.
Evaluation of the effect of treatment with vafidemstat on aggression was performed using the NPI A/A as well as the CGI-I and CGI-S scales. The NPI A/A subscale is based on the NPI and consists of the 4 items in the NPI related to aggression/agitation, namely: agitation/aggression, disinhibition, irritability and aberrant motor disturbance. The severity of each of the 4 items in the NPI A/A scale is rated from 1 to 3 (1=mild, 2=moderate, 3=severe) and the NPI A/A score is calculated as the sum of the scores for all 4 items. CGI values reflect clinician's ratings of patient's aggression severity (CGI-S scale) and improvement in aggression from the initiation (baseline) of the treatment (CGI-I scale). In the CGI-I scale, change from initiation of treatment is rated using a seven-point scale, where 1=very much improved since initiation of treatment, 7=very much worse since initiation of treatment, and 4=no change from baseline. In the CGI-S scale, illness/condition severity is rated using a seven-point scale, the higher the score, the more severe the illness/condition, with 1=normal, not at all ill and 7=among the most extremely ill patients.
In addition to assessing its effect on aggression, the effect of treatment with vafidemstat on ASD patients was also evaluated using the total NPI scale and the NPI non-aggression related combined score. The total NPI scale consists of 12 items relating to a variety of neuropsychiatric domains (namely: delusions, hallucinations, agitation/aggression, depression, anxiety, euphoria/elation, apathy/indifference, disinhibition, irritability, aberrant motor disturbance, nighttime behavior, and appetite/eating disorders) and was used to measure global functioning in ASD patients. The severity of each item in the NPI is rated from 1 to 3 (1=mild, 2=moderate, 3=severe) and the total NPI score is calculated as the sum of the scores for all 12 items. The NPI non-aggression related combined score is the NPI combined score for all other items in the NPI not related to aggression or agitation (8 items; namely: delusions, hallucinations, depression, anxiety, euphoria/elation, apathy/indifference, nighttime behavior, and appetite/eating disorders). […]

[1] = adult ASD patients, 5 days on/2 days off, 8 weeks

SMILES: Nc1nnc(CN[C@@H]2C[C@H]2c2ccc(OCc3ccccc3)cc2)o1 [Vafidemstat, 5-((((1R,2S)-2-(4-(benzyloxy)phenyl)cyclopropyl)amino)methyl)-1,3,4-oxadiazol-2-amine]
- total NPI score (12 items), visit 1 to visit 7 (5 ASD patients, baseline vs 2 months of treatment, p=0.0019 (FIG. 4)): statistically significant reduction
- NPI non-aggression related combined score (8 items), visit 1 to visit 7 (5 ASD patients, baseline vs 2 months of treatment, p=0.0142 (FIG. 5)): statistically significant reduction
- CGI-S value, visit 1 to visit 7 (5 ASD patients, baseline vs 8 weeks treatment, no paired test could be calculated (FIG. 3)): reduction
- CGI-I value, visit 1 to visit 7 (5 ASD patients, baseline vs 8 weeks treatment, p=0.0019 (FIG. 2)): statistically significant reductions
- NPI A/A (4-item agitation/aggression subscale) value, visit 1 to visit 7 (5 ASD patients, baseline vs 8 weeks treatment, p=0.0098 (FIG. 1)): statistically significant reductions
- safety and tolerability [1]: safe and well tolerated, without significant adverse events
- sedation [1]: No sedation
- CGI-S score, visit 1 to visit 7, cohort with one additional patient (n=6 ASD patients, baseline vs 8 weeks treatment, p=0.0006 (FIG. 6)): statistically significant reduction
